Experimental data: patent US11890279B2, “Quinolines that modulate SERCA and their use for treating disease” (Neurodon Corporation, priority 2020, dated 2024)
Like-named read-outs stand apart in the source and are kept apart here. One block for each compound: values may come before it.

Tests used:
[1] = tested on: N2a cells; experiment: Protection against hydrogen peroxide-induced cell death, N2a; assay type: cell-based, mouse; details: compound 40 μM; hydrogen peroxide 200 μM
Description: Protection against Hydrogen Peroxide-induced Cell-death. N2a cells grown in 96-well plates were exposed to a test compound (40 μM) for 2 hrs before addition of hydrogen peroxide (200 μM). After 40 min of incubation with hydrogen peroxide, ALAMARBLUE® regent (10% v/v) was added to the wells. Fluorescence reading was taken 2 hrs after the addition of the ALAMARBLUE® regent. Cell-viability was calculated as a percentage of relative fluorescence unit (RFU) compared to control.
(§1) The results are summarized in Table 2, where A represents a value greater than 50% cell rescue, B represents a value between 10% to 50% cell rescue, C represents a value between 1% to 10% cell rescue, and D represents a value no greater than 1% cell rescue.

[2] = tested on: HEK293 cells; experiment: Protection against thapsigargin (TG)-induced cell death, HEK293; assay type: cell-based, human; details: compound 20 μM; thapsigargin 15 μM; 24 hrs
Description: (§2) Protection against Thapsigargin (TG)-induced Cell-death. Human embryonic kidney (HEK293) cells were grown in Dulbecco's Modified Eagle's Medium (DMEM) with 10% FBS and 1% antibiotic antimycotic solution (ABAM). Mouse neuroblastoma (N2a) cells were grown in 1:1 DMEM:OPTI-MEM® with 5% FBS and 1% ABAM. All cells were grown in 10% CO2 in a humidified environment of the incubator. Cells grown in 96-well plates were exposed to a test compound (20 μM) for 2 hrs before addition of thapsigargin (15 μM for HEK293 cells and 1 μM for N2a cells) to induce ER stress. After incubation in cell-culture incubator for 24 hrs, ALAMARBLUE® regent (10% v/v) was added to the wells. Fluorescence reading was taken 2 hrs after the addition of the ALAMARBLUE® regent. Cell-viability was calculated as a percentage of relative fluorescence unit (RFU) compared to control.
as §1

[3] = tested on: CSM14.1 cells; experiment: ER stress cell survival assay (thapsigargin); assay type: cell-based; details: for Cell Survival: compound 2 μM, about 15 μM thapsigargin, CSM14.1 cells;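 on cell survival: survival read as CellTiter-Glo luminescence after overnight incubation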
Description: ER Stress Cell Survival Assay
CSM14.1 cells were maintained in Complete Medium at 32° C.; wherein the Complete Medium contained Dulbecco's modified eagle medium (DMEM) with 10% fetal bovine serum (FSB), 1% L-glutamine, 100 IU/mL penicillin, and 100 μg/mL streptomycin. The cells were recovered from cultures by trypsinization and then seeded in 384 well plates (Greiner #781098) at a concentration of 1,000 cells/well in 20 μL of DMEM Assay Medium, wherein the DMEM Assay Medium contained 2% FBS, 100 IU/mL penicillin, and 100 μg/mL streptomycin. Seeding was performed using a MultiDrop Combi reagent broadcaster. The plates were incubated overnight at 32° C.
A test compound was prepared by 2-fold serial dilution in 100% DMSO using a BIOMEK® 2000 liquid handler (Beckman Coulter). A dose-response curve containing 10 concentrations of the test compound was obtained. Using a BIOMEK® FX liquid handler (Beckman Coulter), 2.5 μL of the test compound was transferred from the 100% DMSO serial dilution plate to an intermediate plate containing 47.5 μL of DMEM Assay Medium containing 2% FBS, 100 IU/mL penicillin, and 100 μg/mL streptomycin and mixed. To reduce or eliminate the interference from the compound's precipitation, 6 μL of the diluted compound was immediately transferred to the assay plate to achieve a high compound concentration of 100 μM in 99% DMEM Assay Medium and 1% DMSO. After the assay plates were incubated for 2 hrs, 4 μL of 112.5 μM thapsigargin (TG) (DMSO stock diluted into Assay TC Medium) was dispensed into each testing well with a MultiDrop Combi reagent broadcaster for a final concentration of about 15 μM TG. The tissue culture media (4 μL) containing vehicle only was transferred manually to each control cell using a 16 channel electronic pipette. […] High luminescence indicates cell survival.
Alternatively, a test compound was tested at a single compound concentration (e.g., 2 μM) to determine the effect of the compound on cell survival in comparison with vehicle.

[4] = tested on: N2a cells; experiment: Protection against thapsigargin (TG)-induced cell death, N2a; assay type: cell-based, mouse; details: compound 20 μM; thapsigargin 1 μM; 24 hrs
Description: as §2, §1

[5] = tested on: SERCA (SR vesicles); experiment: Activation of SERCA, increase in Vmax; assay type: biochemical
Description: Test compounds were characterized over a range of concentrations using an NADH-linked, enzyme-coupled ATPase assay. Each well contained 2 mg or 7 mg of SR vesicles (optimized for skeletal or cardiac SR, respectively), 50 mM MOPS (pH 7.0), 100 mM KCl, 5 mM MgCl2, 1 mM EGTA, 0.2 mM NADH, 1 mM phosphoenol pyruvate, 5 IU pyruvate kinase, 5 IU lactate dehydrogenase, and 3.5 mg/mL A23187 (a calcium ionophore), and CaCl2 was added to set free [Ca2+] to the specific values. The assay was started upon addition of ATP at a final concentration of 5 mM, and read in a SpectraMax Plus microplate spectrophotometer and the ATPase activities were fitted using the Hill function.

[6] = tested on: human islet microtissues; experiment: Protection of human pancreatic islets under cytokine stress; assay type: cell-based; details: 168 h, compound 5 μM, cytokine cocktail IL1-β, IFN-γ, TNF-α, 7 days, read-out: increase in viability over baseline (total ATP content)
Description: Human pancreatic islet microtissues treated with cytokines were used to model the conditions of Type 1 Diabetes in vitro. This study tested the effects of compounds on […] viability in human islets under cytokine stress. The model consisted of human islet microtissues from an HLA-A2 positive donor grown and separated in a 96-well plate (1 microtissue per well). The microtissues were treated for 7 days with a cocktail of cytokines (IL1-β 5 ng/mL, IFN-γ 25 ng/mL, TNF-α 25 ng/mL) and compound (5 μM) or vehicle. There were 6 microtissues treated per compound or vehicle. At day 7, the total ATP content was measured using CellTiter-Glo (Promega).

[7] = Pharmacokinetics in Sprague Dawley rats; assay type: in vivo, rat; details: rat; for AUC(0-t): read-out: AUC0-t; for MRT inf: read-out: MRT0-∞; for F: PO 10 mg/kg vs IV 2 mg/kg
Description: Blood was drawn at 5 min, 15 min, 30 min, 1 hr, 2 hrs, 4 hrs, 6 hrs, and 8 hrs into EDTA containing tubes and plasma was harvested by centrifugation. Plasma (25 μL) was treated with acetonitrile (125 μL) containing an internal standard. The sample was then centrifuged for 5 min at 4,000 rpm in a tabletop centrifuge and the filtrate was collected. The filtrate was injected onto a Thermo Betasil C18 HPLC column 5 (50×2.1 mm). Mobile Phase A was water with 0.1% formic acid. Mobile Phase B was acetonitrile with 0.1% formic acid. […] An API Sciex 4000 equipped with a turbo ion spray source was used for all analytical measurements. A positive ion MRM method was developed. Peak areas of the product ion were measured against the peak areas of the internal standard. Data was fit using WinNonLin (Pharsight Corporation, Mountain View, CA).

[8] = Sprague Dawley, in vivo, IV 2 mg/kg
[9] = Sprague Dawley, in vivo, PO 10 mg/kg

SMILES: Cc1ccc2cccc(NC(=O)c3ccc(C(F)(F)F)cc3)c2n1 [Compound C10, 4-Trifluoromethyl-N-(2-methylquinolin-8-yl)benzamide]
N2a Cells (H2O2-induced) cell rescue [1]: B (B represents a value between 10% to 50% cell rescue) | HEK293 Cells (TG-induced) cell rescue [2]: A (A represents a value greater than 50% cell rescue) | Cell Survival [3]: D (D represents a value no greater than 1%) | N2a Cells (TG-induced) cell rescue [4]: B (B represents a value between 10% to 50% cell rescue)

SMILES: N#Cc1cccc(C(=O)Nc2cccc3cccnc23)c1 [Compound B3, 3-Cyano-N-(quinolin-8-yl)benzamide]
Increase in Vmax at 10 μM [5]: C′ (C′ represents an increase no greater than 20%) | N2a Cells (H2O2-induced) cell rescue [1]: B (B represents a value between 10% to 50% cell rescue) | HEK293 Cells (TG-induced) cell rescue [2]: A (A represents a value greater than 50% cell rescue) | N2a Cells (TG-induced) cell rescue [4]: B (B represents a value between 10% to 50% cell rescue)

AUC(0-inf) [7, 8]: 309 ± 17 ng·h/mL | Cmax [7, 8]: 3850 ± 460 nM | Tmax [7, 8]: 1.2 min | clearance [7, 8]: 0.167 mL/min/kg | half-life [7, 8]: 27 min | AUC(0-t) [7, 8]: 299 ± 17 ng·h/mL | MRT inf [7, 8]: 27.6 min | AUC(0-inf) [7, 9]: 385 ± 99 ng·h/mL | Cmax [7, 9]: 1250 ± 400 nM | Tmax [7, 9]: 19.8 min | half-life [7, 9]: 26.4 min | AUC(0-t) [7, 9]: 375 ± 105 ng·h/mL | MRT inf [7, 9]: 45 min | F [7]: 25%
SMILES: COc1c(C)cccc1C(=O)Nc1cccc2ccc(C)nc12 [Compound A19, 2-Methoxy-3-methyl-N-(2-methylquinolin-8-yl)benzamide]
Increase in Vmax at 10 μM [5]: A′ (A′ represents an increase greater than 50%) | viability at 5 µM [6]: 20 to 50%

SMILES: Cc1ccc2cccc(NC(=O)c3ccccc3C(F)(F)F)c2n1 [Compound C5, 2-Trifluoromethyl-N-(2-methylquinolin-8-yl)benzamide]
Increase in Vmax at 10 μM [5]: B′ (B′ represents an increase between 20 to 50%) | N2a Cells (H2O2-induced) cell rescue [1]: B (B represents a value between 10% to 50% cell rescue) | HEK293 Cells (TG-induced) cell rescue [2]: A (A represents a value greater than 50% cell rescue) | Cell Survival [3]: B (B represents a value between 10% and 50%) | N2a Cells (TG-induced) cell rescue [4]: A (A represents a value greater than 50% cell rescue)

SMILES: COc1ccc(C(=O)Nc2cccc3ccc(C)nc23)cc1 [Compound A8, 4-Methoxy-N-(2-methylquinolin-8-yl)benzamide]
Increase in Vmax at 10 μM [5]: C′ (C′ represents an increase no greater than 20%) | N2a Cells (H2O2-induced) cell rescue [1]: B (B represents a value between 10% to 50% cell rescue) | HEK293 Cells (TG-induced) cell rescue [2]: A (A represents a value greater than 50% cell rescue) | N2a Cells (TG-induced) cell rescue [4]: B (B represents a value between 10% to 50% cell rescue)

SMILES: COc1ccccc1C(=O)Nc1cccc2ccc(C)nc12 [Compound A9, 2-Methoxy-N-(2-methylquinolin-8-yl)benzamide]
N2a Cells (H2O2-induced) cell rescue [1]: B (B represents a value between 10% to 50% cell rescue) | HEK293 Cells (TG-induced) cell rescue [2]: A (A represents a value greater than 50% cell rescue) | N2a Cells (TG-induced) cell rescue [4]: A (A represents a value greater than 50% cell rescue)

AUC(0-inf) [7, 8]: 381 ± 66 ng·h/mL | Cmax [7, 8]: 4420 ± 640 nM | Tmax [7, 8]: 1.2 min | half-life [7, 8]: 54 min | AUC(0-t) [7, 8]: 380 ± 66 ng·h/mL | MRT inf [7, 8]: 35.4 min | Vd ([7]; Sprague Dawley, in vivo, IV 2 mg/kg, read-out: Vz): 7.01 L/kg | AUC(0-inf) [7, 9]: 587 ± 120 ng·h/mL | Cmax [7, 9]: 1690 ± 740 nM | Tmax [7, 9]: 15 min | AUC(0-t) [7, 9]: 583 ± 119 ng·h/mL | MRT inf [7, 9]: 67.8 min | F [7]: 31%
SMILES: Cc1ccc(C(=O)Nc2cccc3ccc(C)nc23)c(Cl)c1 [Compound A17, 2-Chloro-4-methyl-N-(2-methylquinolin-8-yl)benzamide]
Increase in Vmax at 10 μM [5]: A′ (A′ represents an increase greater than 50%) | viability at 5 µM [6]: 10 to 20% | EC50 ([3]; dose-response): 20 to 100 µM
